Like-named read-outs stand apart in the source and are kept apart here.

For data set [1], the system named is inoculated microorganisms. The experiment in a line: Antibacterial tests in solid state: soaked dried filter paper disks on agar plates. It counts as cell-based. To be noted: deposited on filter papers from DMF 10 mg/mL, 20 μL; 37° C., 24 h. The text has this: (§1) Antimicrobial Activity Studies. Bacterial Strains and Growing Conditions. The strains of bacteria were obtained from Polish Collection of Microorganisms (PCM) of the Institute of Immunology and Experimental Therapy of Polish Academy of Sciences and were used throughout this study. Both Gram-negative and Gram-positive bacteria, as well as yeasts, commonly isolated from patients suffering implant-related infections, were chosen for experiments. They included Escherichia coli PCM 1144 (ATCC #10536), Klebsiella pneumoniae PCM 57, Proteus sp. PCM 542 (ATCC #13315), Pseudomonas aeruginosa PCM 2563 (ATCC #15442), Streptococcus mutans PCM 2502, Staphylococcus aureus PCM 2602 (ATCC #6538), Enterococcus hirae PCM 2559 (ATCC #10541), Mycobacterium fortuitum PCM 672, Candida albicans PCM 2566 (ATCC #10231). In addition, several multidrug-resistant bacterial strains isolated from patients with nosocomial infections K. pneumoniae 244, P. aeruginosa 2314, AMA, Enterococcus faecium VRE (vancomycin-resistant), Streptococcus pneumoniae PCI, S. aureus MRSA (methicillin-resistant), S. aureus MRSC (coagulase-negative methicillin-resistant), were also included in the in vitro testing. Bacteria were cultivated on sugar broth at 37° C. for 24 h in aerobic conditions, and prior to use in tests, cells were diluted with the same medium to obtain suspensions of about 2×10^5 cfu/mL.
Antibacterial Tests in Solid State: Soaked Dried Paper Disks and Pellets. Solutions (or suspensions if the compound was not completely solubilized) of studied Ag(I) cyanoximates in DMF at 10 mg/mL concentration were prepared and 20 μL of it was placed on filter paper discs (diameter 12 mm). These discs were dried for ˜2 h in the dark prior to testing where each filter was placed on agar plates with inoculated microorganisms, which were then incubated at 37° C. for 24 h. Thereafter, microorganisms' growth inhibition zone (if present) was measured (in mm).

In data set [2] the test system is Pseudomonas aeruginosa. The experiment in a line: Antibacterial tests in solid state: pressed AgL pellets on agar plates. In kind it is cell-based.
Text: as §1
(§2) Also, Ag(I) cyanoximates were pressed into 12 mm in diameter pellets using a Carver 20 tons hydraulic press. The method of testing pellets was similar to the one described above. Solid pellets of AgL were carefully placed on agar plates with inoculated bacteria. The exposition time was 24 h at 37° C., after which inhibition zones were measured and results were documented by digital photography.

The subject of data set [3] is Mycobacterium fortuitum. The data set is described as above. In kind it is cell-based.
Text: as §1, §2

Data set [4] in a line: UV-light stability studies, low-pressure Hg lamp 254 nm. In kind it is physicochemical. As to the method:
Photophysical Measurements. Light sensitivity and stability of synthesized Ag(I) cyanoximates was studied at 296 K using a low-pressure Hg lamp with >85% output at λmax=254 nm where the intensity of light was measured with a UVX radiometer (UK). After 4 min warm-up time, this lamp generated a steady flux of UV-radiation that was equal to the dose of 10.13 J/cm^2 within 30 min. Prior to these investigations, complexes were thoroughly dried under high vacuum (<10^−4 Torr) and ground into a powder using an agate mortar. This made it easy to apply these compounds to paper, adhesive tape, or cardboard. Samples of complex were spread on white cardboard with an exposed circular area (via a mask) of ˜3 cm. The radiation source was positioned 1 cm from the sample. A pristine white silver chloride prepared in the dark was used as a control substance to access the light stability of silver(I) cyanoximates. Digital pictures of irradiated samples were taken every 30 min using a stationary digital camera (Kodak DX7630; 6.1 Mpx), and native images were cropped to square shape without any contrast or brightness editing using Samsung Digimax Viewer 2.0 software.

Data set [5] deals with bacterial strains. The data set can be described thus: Antibacterial tests in solutions, microplate Alamar Blue assay (MIC). As to conditions: stock in DMSO, 37° C., 48 h, tested infection agents. In kind it is cell-based. An excerpt:
Antimicrobial Activity Studies. Bacterial Strains and Growing Conditions. The strains of bacteria were obtained from Polish Collection of Microorganisms (PCM) of the Institute of Immunology and Experimental Therapy of Polish Academy of Sciences and were used throughout this study. Both Gram-negative and Gram-positive bacteria, as well as yeasts, commonly isolated from patients suffering implant-related infections, were chosen for experiments. They included Escherichia coli PCM 1144 (ATCC #10536), Klebsiella pneumoniae PCM 57, Proteus sp. PCM 542 (ATCC #13315), Pseudomonas aeruginosa PCM 2563 (ATCC #15442), Streptococcus mutans PCM 2502, Staphylococcus aureus PCM 2602 (ATCC #6538), Enterococcus hirae PCM 2559 (ATCC #10541), Mycobacterium fortuitum PCM 672, Candida albicans PCM 2566 (ATCC #10231). […]
Antibacterial Tests in Solutions. The antibacterial activities of synthesized Ag(I) cyanoximates were determined against bacterial strains by the microplate Alamar Blue assay. […] The fluorescence was measured using Victor^2 apparatus (Wallac, Perkin-Elmer), and the experiment was repeated three times. […] Means and standard error values were determined using the Microsoft Excel.

The mark [6] stands for this setting: 12 mm pressed pellets, 24 h at 37° C., FIG. 10.

As to `N#CC(=N[O-])C(=O)c1ccccc1.[Ag+]` [Ag(BCO), Silver(I) α-Oximido-(2-benzoyl)acetonitrile], the “effect on bacterial growth on solid media (inhibition zones)” value (“effect … (inhibition zones)” below) in data set [1] is recorded as “exhibit antimicrobial activity in the solid state”.
Consider `Cn1c(C(C#N)=N[O-])nc2ccccc21.[Ag+]` [Ag(BIMCO), Silver(I) α-Oximido-(2-[N-methyl]benzoimidazolyl)acetonitrile], for which the “effect … (inhibition zones)” value in data set [1] was “exhibit antimicrobial activity in the solid state”.
On to `N#CC(=N[O-])c1nc2ccccc2o1.[Ag+]` [Ag(BOCO), 2-(Oximido)-2-benzoxazoleacetonitrile Silver(I)], for which the growth inhibition zone result in data set [2] (setting [6]) and in data set [3] (setting [6]) was “clear inhibition zones” each time. Besides, the “effect … (inhibition zones)” value in data set [1] is “exhibit antimicrobial activity in the solid state”.
As for `CN(C)C(=O)C(C#N)=N[O-].[Ag+]` [Ag(DCO), Silver(I) α-Oximido-([N,N-dimethylamine]acetamide)acetonitrile], the growth inhibition zone result in data set [2] and in data set [3] was “clear inhibition zones” throughout. Besides, the “stability toward short wavelength UV-radiation” value in data set [4] is “resistance”. The “minimal inhibitory concentration (MIC), ranking” value in data set [5] is on record as “lowest MIC value”. In data set [1], the “effect … (inhibition zones)” value is “exhibit antimicrobial activity in the solid state”.
For `CCOC(=O)C(C#N)=N[O-].[Ag+]` [Ag(ECO), Silver(I) α-Oximido-(ethylacetoxy)acetonitrile], the growth inhibition zone entry in data set [2] (setting [6]) and in data set [3] (setting [6]) was “clear inhibition zones” in each case. Further, the “effect … (inhibition zones)” value in data set [1] is reported as “exhibit antimicrobial activity in the solid state”.
For `[Cl][Ag]` [AgC1, silver chloride, reference compound], the “stability toward short wavelength UV-radiation” value in data set [4] was “completely darken”.
As for “Silver(I) Nitrosodicyanomethanide [Ag(CCO)]”, the growth inhibition zone result in data set [2] (setting [6]) and in data set [3] (setting [6]) was “clear inhibition zones” each time. The “stability toward short wavelength UV-radiation” value in data set [4] (solid powders, 254 nm, 296 K, FIG. 8) is on record as “resistance”. In data set [1], the “effect … (inhibition zones)” value was “exhibit antimicrobial activity in the solid state”.
For the molecule “Silver(I) α-Oximido-(2-pivaloyl)acetonitrile [Ag(PiCO)]”, in data set [5], the “minimal inhibitory concentration (MIC), ranking” value is reported as “lowest MIC value”. Moreover, the “effect … (inhibition zones)” value in data set [1] is on record as “exhibit antimicrobial activity in the solid state”.
As for “Silver(I) α-Oximido-(acetamide)acetonitrile [Ag(ACO)]”, the “stability toward short wavelength UV-radiation” value in data set [4] was “resistance”.

Values taken from patent US20130096098A1, “Light Insensitive Silver(i) Cyanoximates As Antimicrobial Agents For Indwelling Medical Devices” (MISSOURI STATE UNIVERSITY, priority 2011, published 2013).
